Experimental data taken from patent US8288410B2, “3-substituted quinolinium and 7H-indolo[2,3-c]quinolinium salts as new antiinfectives” (Florida Agricultural and Mechanical University, priority 2008, dated 2012).

Legend:
[1] = system: MRSA; assay: Antibacterial susceptibility testing, MRSA; format: cell-based, methicillin resistant Staphylococcus aureus; conditions: for MRS IC50 / MRS MFC / MRS MIC: Table 1
Method: (§1) Using standard susceptibility tests, the compounds of the invention were determined to be active against MRSA, C. neoformans and several other bacteria, fungi and protozoa. More specifically, the antibacterial and antifungal testing was carried out in the following manner. Cryptococcus neoformans ATCC 90113 and MRSA were obtained from the American Type Culture Collection (Manassas. Va.). Several others including Candida albicans ATTC 90028, Aspergillus fumigatus ATCC 90906 and Mycobacterium intracellulare (M. intracellulare) ATCC 23086 were also procured. Susceptibility testing was performed using a modified version of the National Committee for Clinical Laboratory Standards method. M. intracellulare was tested using a modified method of Franzblau, et al., J. Clin. Microbiol., 1998, 36, 362-366. DMSO solutions of samples were serially diluted in saline, and transferred in duplicate to 96 well microplates. Microbial suspensions were diluted in the broth to afford desired colony forming units/mL according to the 0.5 McFarland Standard [C. Albicans: either Saboraud Dextrose broth (SDB) or RPMI 1640, C. neoformans: SDB, A fumigatus: either YM broth (for MICS) or RPMI-1640+5% Alamar Blue.] After adding microbial cultures to the sampled afforded a final volume of 200 μL and final test concentration starting with 20 μg/mL, plates were read prior to and after final incubation using either fluorescence at 544ex/590em (M intracellulare, A. fumigatus) using the Polarstar galaxy reader (Biotek Instruments, Vermont). Growth (saline only), solvent and blank (media only) controls were included on each test plate. Drug controls [Ciprofloxacin (ICN Biomedicals, Ohio) for bacteria and Amphotericin B (ICN Biomedicals, Ohio) for fungi] were included in each assay. Percent growth was calculated and plotted versus test concentration to afford IC50 (sample concentration that affords 50% inhibition or growth of the organism). The minimum inhibitory concentration (MIC) was determined by visually inspecting the plate, and is defined as the lowest test concentration that allows no detectable growth (for Almar Blue assays, no color change from blue to pink).

[2] = system: Candida albicans ATTC 90028; assay: Antifungal susceptibility testing, Candida albicans; format: cell-based
Method: as §1

[3] = system: Aspergillus fumigatus ATCC 90906; assay: Antifungal susceptibility testing, Aspergillus fumigatus; format: cell-based; conditions: Aspergillus fumigatus
Method: as §1

[4] = system: Cryptococcus neoformans ATCC 90113; assay: Antifungal susceptibility testing, Cryptococcus neoformans; format: cell-based
Method: as §1

## [I-].[O-][S+](c1ccc(C(F)(F)F)cc1)c1cc2ccccc2[n+](CCCCCc2ccccc2)c1 (stereo not shown) [XYZ-V-27]
[1]
  MRS IC50: 0.50 µg/mL
  MRS MFC: — ((-) = >20 μg/mL)
  MRS MIC: 1.3 µg/mL
[2]; Table 1
  Ca IC50: — ((-) = >20 μg/mL)
  Ca MFC: — ((-) = >20 μg/mL)
  Ca MIC: — ((-) = >20 μg/mL)
[3]; Table 1
  A fu IC50: — ((-) = >20 μg/mL)
  A fu MFC: — ((-) = >20 μg/mL)
  A fu MIC: — ((-) = >20 μg/mL)
[4]; Table 1
  Cn IC50: 6.0 µg/mL
  Cn MFC: 20 µg/mL
  Cn MIC: 10 µg/mL

## [I-].[O-][S+](c1cc2ccccc2[n+](CCCCCc2ccccc2)c1)c1ccccc1Br (stereo not shown) [XYZ-IV-98]
[1]
  MRS IC50: 0.35 µg/mL
  MRS MFC: — ((-) = >20 μg/mL)
  MRS MIC: 1.3 µg/mL
[2]; Table 1
  Ca IC50: — ((-) = >20 μg/mL)
  Ca MFC: — ((-) = >20 μg/mL)
  Ca MIC: — ((-) = >20 μg/mL)
[3]; Table 1
  A fu IC50: 15 µg/mL
  A fu MFC: — ((-) = >20 μg/mL)
  A fu MIC: — ((-) = >20 μg/mL)
[4]; Table 1
  Cn IC50: 5.5 µg/mL
  Cn MFC: — ((-) = >20 μg/mL)
  Cn MIC: 20 µg/mL

## Brc1ccccc1Sc1cc2ccccc2[n+](CCCCCc2ccccc2)c1.[I-] [XYZ-III-85]
[1]
  MRS IC50: 0.95 µg/mL
  MRS MFC: 10 µg/mL
  MRS MIC: 2.5 µg/mL
[2]; Table 1
  Ca IC50: 20 µg/mL
  Ca MFC: — ((-) = >20 μg/mL)
  Ca MIC: — ((-) = >20 μg/mL)
[3]; Table 1
  A fu IC50: 0.50 µg/mL
  A fu MFC: — ((-) = >20 μg/mL)
  A fu MIC: 5.0 µg/mL
[4]; Table 1
  Cn IC50: 1.5 µg/mL
  Cn MFC: 10 µg/mL
  Cn MIC: 5.0 µg/mL

## COc1ccc(Nc2cc3ccccc3[n+](CCCCCC3CCCCC3)c2)cc1.[I-] [JRE-3-45-1]
[1]; Table 2
  MRSA IC50: — ((-) = >20 μg/mL)
  MRSA MFC: — ((-) = >20 μg/mL)
  MRSA MIC: — ((-) = >20 μg/mL)
[2]; Table 2
  Ca IC50: — ((-) = >20 μg/mL)
  Ca MFC: — ((-) = >20 μg/mL)
  Ca MIC: — ((-) = >20 μg/mL)
[3]; Table 2
  A fu IC50: — ((-) = >20 μg/mL)
[4]; Table 2
  Cn IC50: — ((-) = >20 μg/mL)
  Cn MFC: — ((-) = >20 μg/mL)
  Cn MIC: — ((-) = >20 μg/mL)

## [I-].c1ccc(CCCCC[n+]2cc(Oc3ccccc3)cc3ccccc32)cc1 [XYZ-III-83]
[1]
  MRS IC50: 15 µg/mL
  MRS MFC: — ((-) = >20 μg/mL)
  MRS MIC: 20 µg/mL
[2]; Table 1
  Ca IC50: — ((-) = >20 μg/mL)
  Ca MFC: — ((-) = >20 μg/mL)
  Ca MIC: — ((-) = >20 μg/mL)
[3]; Table 1
  A fu IC50: 2.0 µg/mL
  A fu MFC: — ((-) = >20 μg/mL)
  A fu MIC: — ((-) = >20 μg/mL)
[4]; Table 1
  Cn IC50: — ((-) = >20 μg/mL)
  Cn MFC: — ((-) = >20 μg/mL)
  Cn MIC: — ((-) = >20 μg/mL)

## [I-].[O-][S+](c1cccc(C(F)(F)F)c1)c1cc2ccccc2[n+](CCCCCc2ccccc2)c1 (stereo not shown) [XYZ-IV-87]
[1]
  MRS IC50: 0.25 µg/mL
  MRS MFC: 20 µg/mL
  MRS MIC: 1.3 µg/mL
[2]; Table 1
  Ca IC50: — ((-) = >20 μg/mL)
  Ca MFC: — ((-) = >20 μg/mL)
  Ca MIC: — ((-) = >20 μg/mL)
[3]; Table 1
  A fu IC50: — ((-) = >20 μg/mL)
  A fu MFC: — ((-) = >20 μg/mL)
  A fu MIC: — ((-) = >20 μg/mL)
[4]; Table 1
  Cn IC50: 6.5 µg/mL
  Cn MFC: 20 µg/mL
  Cn MIC: 20 µg/mL

## COc1cccc(Sc2cc3ccccc3[n+](CCCCCc3ccccc3)c2)c1.[I-] [XYZ-IV-20]
[1]
  MRS IC50: 0.70 µg/mL
  MRS MFC: 10 µg/mL
  MRS MIC: 1.3 µg/mL
[2]; Table 1
  Ca IC50: 7.0 µg/mL
  Ca MFC: — ((-) = >20 μg/mL)
  Ca MIC: 20 µg/mL
[3]; Table 1
  A fu IC50: 0.55 µg/mL
  A fu MFC: — ((-) = >20 μg/mL)
  A fu MIC: 1.3 µg/mL
[4]; Table 1
  Cn IC50: 1.5 µg/mL
  Cn MFC: 10 µg/mL
  Cn MIC: 2.5 µg/mL

## COc1ccc(Sc2cc3ccccc3[n+](C)c2)cc1.[I-] [XYZ-III-71]
[1]
  MRS IC50: — ((-) = >20 μg/mL)
  MRS MFC: — ((-) = >20 μg/mL)
  MRS MIC: — ((-) = >20 μg/mL)
[2]; Table 1
  Ca IC50: — ((-) = >20 μg/mL)
  Ca MFC: — ((-) = >20 μg/mL)
  Ca MIC: — ((-) = >20 μg/mL)
[3]; Table 1
  A fu IC50: — ((-) = >20 μg/mL)
  A fu MFC: — ((-) = >20 μg/mL)
  A fu MIC: — ((-) = >20 μg/mL)
[4]; Table 1
  Cn IC50: — ((-) = >20 μg/mL)
  Cn MFC: — ((-) = >20 μg/mL)
  Cn MIC: — ((-) = >20 μg/mL)

## O=C(c1ccc(Cl)cc1)c1cc2ccccc2[n+](CCCCCc2ccccc2)c1.[I-] [XYZ-V-62]
[1]
  MRS IC50: 0.20 µg/mL
  MRS MFC: — ((-) = >20 μg/mL)
  MRS MIC: 3.1 µg/mL
[2]; Table 1
  Ca IC50: 7.0 µg/mL
  Ca MFC: — ((-) = >20 μg/mL)
  Ca MIC: 10 µg/mL
[3]; Table 1
  A fu IC50: 10 µg/mL
  A fu MFC: — ((-) = >20 μg/mL)
  A fu MIC: 20 µg/mL
[4]; Table 1
  Cn IC50: 2.0 µg/mL
  Cn MFC: 10 µg/mL
  Cn MIC: 5.0 µg/mL

## C[n+]1cc(Sc2ccc(C(F)(F)F)cc2)cc2ccccc21.[I-] [XYZ-III-65]
[1]
  MRS IC50: — ((-) = >20 μg/mL)
  MRS MFC: — ((-) = >20 μg/mL)
  MRS MIC: — ((-) = >20 μg/mL)
[2]; Table 1
  Ca IC50: — ((-) = >20 μg/mL)
  Ca MFC: — ((-) = >20 μg/mL)
  Ca MIC: — ((-) = >20 μg/mL)
[3]; Table 1
  A fu IC50: — ((-) = >20 μg/mL)
  A fu MFC: — ((-) = >20 μg/mL)
  A fu MIC: — ((-) = >20 μg/mL)
[4]; Table 1
  Cn IC50: — ((-) = >20 μg/mL)
  Cn MFC: — ((-) = >20 μg/mL)
  Cn MIC: — ((-) = >20 μg/mL)
